How the values were obtained:
[1] = Inhibition of HCV 1a NS3/4A protease; parameters: species or system Hepatitis C virus subtype 1a
Hepatitis C virus = test: Antiviral activity against HCV genotype 1b infected in Huh7 cells assessed as inhibition of viral replication by cell-based replicon assay; format: functional, organism-based, Hepacivirus hominis; details: Huh-7
[2] = Clearance in dog at 1 mg/kg, iv; format: ADME, organism-based, Canis lupus familiaris; parameters: dose 1 mg/kg, route intravenous; details: in vivo
[3] = Oral bioavailability in dog at 3 mg/kg; format: ADME, organism-based, Canis lupus familiaris; details: in vivo
[4] = Oral bioavailability in rat at 10.7 mg/kg, po; format: ADME, organism-based; details: in vivo
[5] = Clearance in rat at 0.4 mg/kg, iv; format: ADME, organism-based; parameters: dose 0.4 mg/kg, route intravenous; details: in vivo
[6] = Clearance in dog at 0.5 mg/kg, iv; format: ADME, organism-based, Canis lupus familiaris; parameters: dose 0.5 mg/kg, route intravenous; details: in vivo
[7] = Oral bioavailability in dog at 4 mg/kg; format: ADME, organism-based, Canis lupus familiaris; details: in vivo

| SMILES | IC50 [1] | EC50 (Hepatitis C virus) | clearance [2] | further results |
| --- | --- | --- | --- | --- |
| COc1ccc2c(O[C@@H]3C[C@H]4C(=O)N[C@]5(C(=O)O)C[C@H]5C=CCCCCC[C@H](NC(=O)OC5CCCC5)C(=O)N4C3)cc(-c3csc(NC(C)C)n3)nc2c1 [CILUPREVIR] | 1 nM | 1 nM | – | – |
| C=C[C@@H]1C[C@]1(NC(=O)[C@@H]1C[C@@H](Oc2cc(-c3csc(NC(C)C)n3)nc3cc(OC)ccc23)CN1C(=O)[C@@H](NC(=O)OC1CCCC1)C(C)(C)C)P(=O)(O)O | – | – | 11.2 mL/min/kg | bioavailability [3]: 0.5% |
| C=C[C@@H]1C[C@]1(NC(=O)[C@@H]1C[C@@H](Oc2cc(-c3csc(NC(C)C)n3)nc3cc(OC)ccc23)CN1C(=O)[C@@H](NC(=O)OC1CCCC1)C(C)(C)C)P(=O)(O)Cc1ccccc1 | 9 nM | 180 nM | – | bioavailability [3]: 4.6%; clearance [6]: 10.7 mL/min/kg; clearance [5]: 36.7 mL/min/kg |
| C=C[C@@H]1C[C@]1(NC(=O)[C@@H]1C[C@@H](Oc2cc(-c3csc(NC(C)C)n3)nc3cc(OC)ccc23)CN1C(=O)[C@@H](NC(=O)OC1CCCC1)C(C)(C)C)P(=O)(O)C(C)C | 86 nM | 3080 nM | – | – |
| C=C[C@@H]1C[C@]1(NC(=O)[C@@H]1C[C@@H](Oc2cc(-c3csc(NC(C)C)n3)nc3cc(OC)ccc23)CN1C(=O)[C@@H](NC(=O)OC1CCCC1)C(C)(C)C)P(=O)(O)Cc1ccccc1OC | 6 nM | 47 nM | – | – |
| C=C[C@@H]1C[C@]1(NC(=O)[C@@H]1C[C@@H](Oc2cc(-c3csc(NC(C)C)n3)nc3cc(OC)ccc23)CN1C(=O)[C@@H](NC(=O)OC1CCCC1)C(C)(C)C)P(=O)(O)CCCC | 8 nM | 49 nM | – | – |
| C=C[C@@H]1C[C@]1(NC(=O)[C@@H]1C[C@@H](Oc2cc(-c3csc(NC(C)C)n3)nc3cc(OC)ccc23)CN1C(=O)[C@@H](NC(=O)OC1CCCC1)C(C)(C)C)P(=O)(O)c1ccccc1 | 44 nM | 2650 nM | – | – |
| C=C[C@@H]1C[C@]1(NC(=O)[C@@H]1C[C@@H](Oc2cc(-c3csc(NC(C)C)n3)nc3cc(OC)ccc23)CN1C(=O)[C@@H](NC(=O)OC1CCCC1)C(C)(C)C)P(=O)(O)CC | 8 nM | 390 nM | – | – |

The remaining molecules from weak to strong by IC50 [1], led by results:

| IC50 [1] | EC50 (Hepatitis C virus) | clearance [2] | SMILES | further results |
| --- | --- | --- | --- | --- |
| 6 nM | 311 nM | – | C=C[C@@H]1C[C@]1(NC(=O)[C@@H]1C[C@@H](Oc2cc(-c3csc(NC(C)C)n3)nc3cc(OC)ccc23)CN1C(=O)[C@@H](NC(=O)OC1CCCC1)C(C)(C)C)P(=O)(O)Cc1ccccc1Cl | – |
| 6 nM | 69 nM | – | C=C[C@@H]1C[C@]1(NC(=O)[C@@H]1C[C@@H](Oc2cc(-c3csc(NC(C)C)n3)nc3cc(OC)ccc23)CN1C(=O)[C@@H](NC(=O)OC1CCCC1)C(C)(C)C)P(C)(=O)O | bioavailability [4]: 0.4%; clearance [5]: 28.7 mL/min/kg |
| 6 nM | 5 nM | 6 mL/min/kg | COc1ccc2c(O[C@@H]3C[C@H]4C(=O)N[C@]5(P(=O)(O)Cc6ccccc6)C[C@H]5CCCCCCC[C@H](NC(=O)OC5CCCC5)C(=O)N4C3)cc(-c3csc(NC(C)C)n3)nc2c1 | bioavailability [7]: 6.4% |
| 3 nM | 7 nM | 5.33 mL/min/kg | COc1ccc2c(O[C@@H]3C[C@H]4C(=O)N[C@]5(P(=O)(O)Cc6ccccc6OC)C[C@H]5CCCCCCC[C@H](NC(=O)OC5CCCC5)C(=O)N4C3)cc(-c3csc(NC(C)C)n3)nc2c1 | – |
| 3 nM | 9 nM | 17.3 mL/min/kg | COc1ccc2c(O[C@@H]3C[C@H]4C(=O)N[C@]5(P(=O)(O)Cc6ccccc6OC)C[C@H]5/C=C/CCCCC[C@H](NC(=O)OC5CCCC5)C(=O)N4C3)cc(-c3csc(NC(C)C)n3)nc2c1 | – |
| 3 nM | 10 nM | – | COc1ccc2c(O[C@@H]3C[C@H]4C(=O)N[C@]5(P(=O)(O)Cc6ccccc6)C[C@H]5/C=C/CCCCC[C@H](NC(=O)OC5CCCC5)C(=O)N4C3)cc(-c3csc(NC(C)C)n3)nc2c1 | – |
| 3 nM | 5 nM | 3.17 mL/min/kg | COc1ccc2c(O[C@@H]3C[C@H]4C(=O)N[C@]5(P(=O)(O)Cc6ccccc6Cl)C[C@H]5CCCCCCC[C@H](NC(=O)OC5CCCC5)C(=O)N4C3)cc(-c3csc(NC(C)C)n3)nc2c1 | – |
| 1 nM | 5 nM | 9.33 mL/min/kg | COc1ccc2c(O[C@@H]3C[C@H]4C(=O)N[C@]5(P(=O)(O)Cc6ccccc6Cl)C[C@H]5/C=C/CCCCC[C@H](NC(=O)OC5CCCC5)C(=O)N4C3)cc(-c3csc(NC(C)C)n3)nc2c1 | – |
| 1 nM | 5 nM | – | COc1ccc2c(O[C@@H]3C[C@H]4C(=O)N[C@]5(P(=O)(O)O)C[C@H]5/C=C/CCCCC[C@H](NC(=O)OC5CCCC5)C(=O)N4C3)cc(-c3csc(NC(C)C)n3)nc2c1 | – |

From ChEMBL document CHEMBL1777720, “Novel, potent, and orally bioavailable phosphinic acid inhibitors of the hepatitis C virus NS3 protease” (Bioorg Med Chem Lett, 2011)
